Experimental data published in publication PMC5991599, “Anti‐tumor efficacy of a novel CLK inhibitor via targeting RNA splicing and MYC‐dependent vulnerability” (EMBO Molecular Medicine, 2018).

How the values were obtained:
NCI-H1048 xenografts = assay: Efficacy study in NCI-H1048 xenograft model; format: in vivo, Balb/c nude mice; conditions: 50 mg/kg, twice weekly regimen
Method: MDA‐MB‐468 (5 × 10^6), NCI‐H1048 (5 × 10^6), or MV‐4‐11 (2 × 10^6) cells in Matrigel were subcutaneously inoculated into the left flanks of Balb/c nude mice (7‐ to 8‐week‐old females). When xenografted tumors grew to a sufficient volume, the tumor diameter was measured and its volume was calculated as follows:
(§1) Tumor volume=long diameter×short diameter×short diameter×(1/2)
(§2) Mice having a tumor of size approximately 200 mm^3 were used in efficacy or in vivo pharmacodynamics studies. T‐025 was dissolved in 0.5% methylcellulose solution. For the efficacy study, after randomized grouping, mice were treated with T‐025 twice daily once or twice weekly for 2 or 3 weeks. The mouse tumor volume and body weight were measured every 2–3 days.

[1] = tested on: MYC-driven breast tumor allograft; assay: Efficacy study in MMTV-MYC allograft model; format: in vivo, Balb/c nude mice; conditions: 50 mg/kg, twice daily on 2 days per week
Method: The transgenic MMTV‐MYC model was generated using the MMTV promoter as previously described (Muller et al, 1988) and was obtained from the Mouse Models of Human Cancer Consortium. The MYC‐driven breast tumor allograft model was established from a primary tumor of this model (females). Tumor cells were isolated using a cell strainer in the presence of RPMI. Viable cell count was determined, and 0.1 × 10^6 cells per mouse were subcutaneously injected in Balb/c nude animals (12‐week‐old females, Taconic Biosciences, Hudson, NY, USA) for subsequent propagation in the presence of Matrigel (BD, Franklin Lakes, NJ, USA) After two rounds of in vivo propagation, the tumor material was cryopreserved in liquid nitrogen. A small piece of the tumor was subcutaneously inoculated into Balb/c nude mice (7‐ to 8‐week‐old females), and the tumors were used for efficacy assessment.
as §1, §2

HIPK2 = HIPK2 (Homo sapiens, UniProt Q9H2X6); assay: Immunoblotting of pS46 p53, direct phosphorylation site of HIPK2, in cells; format: cell-based; conditions: up to 1000 nmol/L; immunoblot from Fig 2A samples (MDA-MB-468, 6 h)
Sequence of HIPK2 (Q9H2X6 whole entry): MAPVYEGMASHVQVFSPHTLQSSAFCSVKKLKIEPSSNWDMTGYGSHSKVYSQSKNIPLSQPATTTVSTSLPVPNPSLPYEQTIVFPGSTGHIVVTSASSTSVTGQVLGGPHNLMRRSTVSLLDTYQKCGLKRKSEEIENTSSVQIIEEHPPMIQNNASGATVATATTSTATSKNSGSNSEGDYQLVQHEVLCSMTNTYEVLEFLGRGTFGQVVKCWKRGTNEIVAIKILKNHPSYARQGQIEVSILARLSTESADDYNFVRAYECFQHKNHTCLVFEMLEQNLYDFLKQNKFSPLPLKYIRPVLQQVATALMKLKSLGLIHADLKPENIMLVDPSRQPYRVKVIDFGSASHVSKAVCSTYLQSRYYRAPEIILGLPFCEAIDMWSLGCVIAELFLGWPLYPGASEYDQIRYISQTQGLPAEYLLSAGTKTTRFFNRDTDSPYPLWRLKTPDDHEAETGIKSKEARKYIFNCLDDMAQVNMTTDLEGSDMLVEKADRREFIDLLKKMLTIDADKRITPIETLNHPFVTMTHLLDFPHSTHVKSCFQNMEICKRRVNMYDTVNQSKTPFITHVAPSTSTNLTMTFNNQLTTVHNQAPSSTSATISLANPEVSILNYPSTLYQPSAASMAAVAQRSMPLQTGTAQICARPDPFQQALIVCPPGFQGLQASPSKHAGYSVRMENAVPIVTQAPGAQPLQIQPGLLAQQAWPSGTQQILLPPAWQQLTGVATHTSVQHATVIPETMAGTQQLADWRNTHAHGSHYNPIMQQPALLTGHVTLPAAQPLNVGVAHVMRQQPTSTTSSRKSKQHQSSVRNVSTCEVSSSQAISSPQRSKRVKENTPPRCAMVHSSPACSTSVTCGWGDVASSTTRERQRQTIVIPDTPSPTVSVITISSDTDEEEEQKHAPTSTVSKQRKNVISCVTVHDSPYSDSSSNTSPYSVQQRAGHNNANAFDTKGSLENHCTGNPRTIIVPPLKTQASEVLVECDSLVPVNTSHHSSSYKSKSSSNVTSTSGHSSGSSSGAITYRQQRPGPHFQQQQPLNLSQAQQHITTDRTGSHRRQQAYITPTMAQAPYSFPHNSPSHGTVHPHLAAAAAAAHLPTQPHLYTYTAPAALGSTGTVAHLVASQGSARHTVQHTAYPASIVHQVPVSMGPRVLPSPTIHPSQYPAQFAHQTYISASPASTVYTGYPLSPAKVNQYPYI
From the text: EMBO Molecular Medicine - Peer Review Process File
PRS6KB1 was observed by RNAi of CLK2 and T-025.
It had already been reported that ASs induced by […]
that T-025 and depletion of CLKs caused a similar splicing effect.
Furthermore, T3, another CLK […]
and increased MYC-dependent vulnerability (Fig EV4). […]
phosphorylation, at a direct phosphorylation site of HIPK2, up to 1000 nmol/L (see below, from Fig.
In quantifying the bands of pCLK2, the background of this immunoblotting around 50 kDa was relatively high and the band was shifted in the T-025 treated samples (below); thus, we could not […]
BF is undefined and ∆PSI is not clearly defined. If ∆PSI is really "percentage splice-in", none of the effects is significant. The normalization of ∆PSI is unclear. In Figure 2E, the difference between […]
According to the MISO software, the Bayer Factor (BF) represents the weight of the evidence in the data in favor of differential expression versus the weight of evidence not in favor. For example, a © European Molecular Biology Organization 13 […]

[2] = Pharmacokinetics evaluation, unbound plasma concentration after oral administration; format: in vivo; conditions: nude mice, mean, calculated using protein binding
Method: The black dotted line indicates the relative ATP value prior to treatment (Day 0). • C The number of AS events modulated by T‐025 treatment for 6 h in MDA‐MB‐468 cells. The numbers of AS events with a BF > 20 and |ΔPSI| > 0.1 were counted and categorized according to the AS type (SE, skipped exon; RI, retained intron; A5′SS, alternative 5′‐splice‐site; A3′SS, alternative 3′‐splice‐site; MEE, mutually exclusive exon; AFE, alternative first exon; ALE, alternative last exon). • D–F MDA‐MB‐468 xenograft tumors treated with 50 mg/kg of T‐025 were sampled and analyzed by immunohistochemistry […], immunoblotting (E), or RT–PCR (F). Representative images of pCLK2 stained tumors and scale bar (30 μm) are shown. Also shown: The mean unbound plasma T‐025 concentration was calculated using protein binding after oral administration. • G, H Anti‐tumor efficacy of T‐025 in MDA‐MB‐468 xenograft models. T‐025 was administered twice daily on 2 days per week (red arrows). Tumor volume (G) and body weight (H) during the efficacy study are shown as means ± s.e.m. (n = 5). Data information: In (B, D, and F), data are shown as the means ± s.d. of three independent experiments (n = 3). In (G and H), an unpaired Student's t‐test was performed.Source data are available online for this figure. TEXT PRINTED IN THE PICTURE: (D) T-025: Unbound plasma Conc. (nmol/L): 554 (50 mg/kg; 2 h); Unbound plasma Conc. (nmol/L): 97 (50 mg/kg; 4 h); Unbound plasma Conc. (nmol/L): 105 (50 mg/kg; 8 h); Unbound plasma Conc. (nmol/L): 0 (50 mg/kg; 24 h)
Then, we evaluated T‐025 in an animal model.

CLK1 = CLK1 (Homo sapiens, UniProt P49759); assay: Enzymatic assay; format: biochemical; conditions: read-out: IC50 (nmol/L) CLK1
Sequence of CLK1 (P49759 whole entry): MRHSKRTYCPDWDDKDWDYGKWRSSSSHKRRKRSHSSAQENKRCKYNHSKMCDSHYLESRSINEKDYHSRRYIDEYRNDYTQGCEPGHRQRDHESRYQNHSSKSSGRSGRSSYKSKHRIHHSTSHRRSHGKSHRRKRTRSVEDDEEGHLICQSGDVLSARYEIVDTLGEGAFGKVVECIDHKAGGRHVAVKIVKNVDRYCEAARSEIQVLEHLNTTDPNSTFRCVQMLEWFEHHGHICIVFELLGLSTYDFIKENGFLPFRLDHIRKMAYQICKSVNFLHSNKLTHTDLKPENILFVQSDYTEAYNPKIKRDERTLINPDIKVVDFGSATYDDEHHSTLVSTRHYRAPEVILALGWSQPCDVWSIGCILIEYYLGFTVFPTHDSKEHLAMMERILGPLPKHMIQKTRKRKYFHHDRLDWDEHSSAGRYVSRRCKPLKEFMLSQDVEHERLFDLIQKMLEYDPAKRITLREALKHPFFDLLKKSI
From the text: (§3) Appendix Supplemental Methods

CLK3 = CLK3 (Homo sapiens, UniProt P49761); assay: Enzymatic assay; format: biochemical; conditions: read-out: IC50 (nmol/L) CLK3
Sequence of CLK3 (P49761 whole entry): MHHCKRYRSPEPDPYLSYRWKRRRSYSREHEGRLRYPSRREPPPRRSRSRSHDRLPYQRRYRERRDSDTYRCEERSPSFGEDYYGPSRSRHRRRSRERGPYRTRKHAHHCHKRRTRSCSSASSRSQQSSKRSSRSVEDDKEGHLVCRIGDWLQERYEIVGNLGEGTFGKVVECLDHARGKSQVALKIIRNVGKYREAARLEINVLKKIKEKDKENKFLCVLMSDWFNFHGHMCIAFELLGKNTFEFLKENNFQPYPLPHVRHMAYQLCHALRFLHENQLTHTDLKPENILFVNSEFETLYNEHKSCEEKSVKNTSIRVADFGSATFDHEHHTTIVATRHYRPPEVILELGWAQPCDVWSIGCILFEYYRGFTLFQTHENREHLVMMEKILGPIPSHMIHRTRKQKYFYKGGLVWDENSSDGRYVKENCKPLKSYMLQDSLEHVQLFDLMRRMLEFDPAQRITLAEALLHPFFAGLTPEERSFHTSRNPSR
From the text: as §3

DYRK1B = DYRK1B (Homo sapiens, UniProt Q9Y463); assay: Enzymatic assay; format: biochemical; conditions: read-out: IC50 (nmol/L) DYRK1B
From the text: as §3

CLK2 = CLK2 (Homo sapiens, UniProt P49760); assay: Enzymatic assay; format: biochemical; conditions: read-out: IC50 (nmol/L) CLK2
Sequence of CLK2 (P49760 whole entry): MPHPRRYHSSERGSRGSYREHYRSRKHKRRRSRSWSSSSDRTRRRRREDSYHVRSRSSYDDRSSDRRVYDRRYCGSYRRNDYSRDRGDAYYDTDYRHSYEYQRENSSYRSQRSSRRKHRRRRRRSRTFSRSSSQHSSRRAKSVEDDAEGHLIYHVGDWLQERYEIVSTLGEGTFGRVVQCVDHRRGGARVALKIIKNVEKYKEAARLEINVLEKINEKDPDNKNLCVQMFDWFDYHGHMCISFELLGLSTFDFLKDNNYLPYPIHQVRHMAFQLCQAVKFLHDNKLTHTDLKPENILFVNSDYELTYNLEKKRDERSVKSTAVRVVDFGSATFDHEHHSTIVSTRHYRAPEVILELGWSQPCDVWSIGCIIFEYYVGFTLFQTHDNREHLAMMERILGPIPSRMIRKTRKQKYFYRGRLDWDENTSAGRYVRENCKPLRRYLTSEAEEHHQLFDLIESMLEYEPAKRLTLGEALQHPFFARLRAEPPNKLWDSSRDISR
From the text: as §3

HIPK4 = target: T1, HIPK4 (Homo sapiens, UniProt Q8NE63); assay: KINOMEScan-based kinase selectivity assay; format: binding; conditions: 300 nmol/L, n = 2
T1 construct: purchased DiscoverX Corporation (Fremont, CA, USA)
T1 sequence (Q8NE63 whole entry): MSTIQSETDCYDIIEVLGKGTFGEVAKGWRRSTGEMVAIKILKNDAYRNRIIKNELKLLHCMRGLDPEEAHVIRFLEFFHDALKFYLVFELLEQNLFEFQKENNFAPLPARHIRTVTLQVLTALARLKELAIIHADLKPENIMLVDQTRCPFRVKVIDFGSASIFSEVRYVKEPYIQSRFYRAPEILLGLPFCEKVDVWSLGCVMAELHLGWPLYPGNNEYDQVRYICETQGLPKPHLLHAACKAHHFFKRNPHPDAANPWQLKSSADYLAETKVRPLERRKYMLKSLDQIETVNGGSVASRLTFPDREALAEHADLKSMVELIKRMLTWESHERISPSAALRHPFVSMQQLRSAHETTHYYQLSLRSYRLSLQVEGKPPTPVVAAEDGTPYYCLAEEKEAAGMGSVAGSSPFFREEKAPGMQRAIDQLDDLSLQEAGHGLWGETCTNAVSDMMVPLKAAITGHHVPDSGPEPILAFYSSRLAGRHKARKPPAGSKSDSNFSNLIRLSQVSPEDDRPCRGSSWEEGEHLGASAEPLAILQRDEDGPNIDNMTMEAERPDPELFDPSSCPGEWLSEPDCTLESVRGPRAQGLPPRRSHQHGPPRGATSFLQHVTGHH
Method: (§4) The KINOMEScan‐based kinase selectivity assay was performed at the DiscoverX Corporation (Fremont, CA, USA). The panel of growth inhibition assay and subsequent bioinformatics analysis (Fig EV1) were performed at Eurofins Inc. (St. Charles, MO, USA), using OncoPanel 240 or 60. Details of the procedures of cell proliferation assay, caspase‐3/7 activity assay, immunoblotting, and immunohistochemistry are described in Appendix Supplementary Methods.

HIPK3 = target: T2, HIPK3 (Homo sapiens, UniProt Q9H422); assay: KINOMEScan-based kinase selectivity assay; format: binding; conditions: 300 nmol/L, n = 2
T2 construct: purchased DiscoverX Corporation (Fremont, CA, USA)
T2 sequence (Q9H422 whole entry): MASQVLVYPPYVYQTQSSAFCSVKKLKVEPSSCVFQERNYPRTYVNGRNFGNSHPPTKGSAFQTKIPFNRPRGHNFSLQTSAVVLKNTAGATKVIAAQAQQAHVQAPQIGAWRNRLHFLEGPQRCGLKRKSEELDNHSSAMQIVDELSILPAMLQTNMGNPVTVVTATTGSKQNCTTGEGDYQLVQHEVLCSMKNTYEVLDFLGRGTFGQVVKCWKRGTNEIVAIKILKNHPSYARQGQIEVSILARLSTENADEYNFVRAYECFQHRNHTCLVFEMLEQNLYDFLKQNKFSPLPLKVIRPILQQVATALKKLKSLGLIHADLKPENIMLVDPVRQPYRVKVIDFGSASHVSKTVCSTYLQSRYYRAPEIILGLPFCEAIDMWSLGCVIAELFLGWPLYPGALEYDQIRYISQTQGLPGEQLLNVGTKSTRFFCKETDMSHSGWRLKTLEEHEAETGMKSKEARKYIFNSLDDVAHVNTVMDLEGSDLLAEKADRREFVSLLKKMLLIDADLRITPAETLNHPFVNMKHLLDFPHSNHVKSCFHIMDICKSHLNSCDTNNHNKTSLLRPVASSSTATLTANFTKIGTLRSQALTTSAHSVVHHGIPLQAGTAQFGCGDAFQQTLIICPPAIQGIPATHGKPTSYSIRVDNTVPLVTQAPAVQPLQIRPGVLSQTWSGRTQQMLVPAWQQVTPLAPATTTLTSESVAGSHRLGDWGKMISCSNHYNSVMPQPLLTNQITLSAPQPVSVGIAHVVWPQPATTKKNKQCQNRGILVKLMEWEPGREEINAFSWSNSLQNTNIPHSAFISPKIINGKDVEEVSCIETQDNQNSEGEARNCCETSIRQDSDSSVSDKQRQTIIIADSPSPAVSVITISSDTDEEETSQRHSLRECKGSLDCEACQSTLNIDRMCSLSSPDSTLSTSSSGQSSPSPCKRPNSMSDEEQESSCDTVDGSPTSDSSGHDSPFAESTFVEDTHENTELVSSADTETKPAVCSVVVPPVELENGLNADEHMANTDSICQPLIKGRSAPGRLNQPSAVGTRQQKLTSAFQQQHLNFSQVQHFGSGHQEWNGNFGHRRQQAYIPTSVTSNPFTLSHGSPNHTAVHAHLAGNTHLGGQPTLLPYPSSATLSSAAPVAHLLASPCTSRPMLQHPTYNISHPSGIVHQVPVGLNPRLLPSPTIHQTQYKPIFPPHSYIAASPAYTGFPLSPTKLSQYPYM
Method: as §4

FLT3 D835Y = target: T3, FLT3 D835Y (Homo sapiens, UniProt P36888, D835Y); assay: KINOMEScan-based kinase selectivity assay; format: binding; conditions: 300 nmol/L, n = 2
T3 construct: purchased DiscoverX Corporation (Fremont, CA, USA)
Method: as §4

CNc1nc(NCc2ncccn2)c2c(-c3ccc4ncccc4c3)c[nH]c2n1 [T-025, N ^2‐methyl‐N ^4‐[pyrimidin‐2‐ylmethyl]‐5‐[quinolin‐6‐yl]‐7H‐pyrrolo[2,3‐d]pyrimidine‐2,4‐diamine]
anti-tumor efficacy, tumor volume (NCI-H1048 xenografts): exhibited in vivo anti‐tumor efficacy
body weight loss (NCI-H1048 xenografts): no significant body weight loss
anti-tumor efficacy, tumor growth [1]: strongly suppressed growth of the allograft tumors
body weight loss [1]: without inducing body weight losses
inhibition of HIPK2 in cells (pS46 p53 phosphorylation) (HIPK2): did not inhibit HIPK2
Unbound plasma Conc. ([2]; oral 50 mg/kg, 8 h): 104 nM
concentration at 2 h ([2]; nude, mouse, plasma, po, 50 mg/kg, 2 h, read-out: Unbound plasma Conc.): 554 nM
concentration at 4 h ([2]; nude, mouse, plasma, po, 50 mg/kg, 4 h, read-out: Unbound plasma Conc.): 97 nM
concentration at 8 h ([2]; nude, mouse, plasma, po, 50 mg/kg, 8 h, read-out: Unbound plasma Conc.): 105 nM
concentration at 24 h ([2]; nude, mouse, plasma, po, 50 mg/kg, 24 h, read-out: Unbound plasma Conc.): 0 nM
IC50 (CLK1): 0.93 nmol/L
IC50 (CLK3): 14 nmol/L
IC50 (DYRK1B): 1.5 nmol/L
IC50 (CLK2): 1 nmol/L
inhibition at 0.3 µM (HIPK4): 95.6%
inhibition at 0.3 µM (HIPK3): 95.1%
inhibition at 0.3 µM (FLT3 D835Y): 93.3%
